From patent US20060074243A1, “Hydroxamic acid and amide compounds and their use as protease inhibitors” (Pharmacia Corporation, priority 2002, published 2006) come the findings set out here.

Each structure is given as a SMILES string.

Holding throughout (experiment): In vitro MMP inhibition analysis (fluorogenic peptide substrate cleavage), Ki
Holding throughout (format): biochemical

One assay concerns the target T1, Human recombinant MMP-2 (Homo sapiens, UniProt P08253).
T1 construct: made in house; host or cells: MMP-2-transfected p2AHT2 cells
T1 sequence (P08253 110-660): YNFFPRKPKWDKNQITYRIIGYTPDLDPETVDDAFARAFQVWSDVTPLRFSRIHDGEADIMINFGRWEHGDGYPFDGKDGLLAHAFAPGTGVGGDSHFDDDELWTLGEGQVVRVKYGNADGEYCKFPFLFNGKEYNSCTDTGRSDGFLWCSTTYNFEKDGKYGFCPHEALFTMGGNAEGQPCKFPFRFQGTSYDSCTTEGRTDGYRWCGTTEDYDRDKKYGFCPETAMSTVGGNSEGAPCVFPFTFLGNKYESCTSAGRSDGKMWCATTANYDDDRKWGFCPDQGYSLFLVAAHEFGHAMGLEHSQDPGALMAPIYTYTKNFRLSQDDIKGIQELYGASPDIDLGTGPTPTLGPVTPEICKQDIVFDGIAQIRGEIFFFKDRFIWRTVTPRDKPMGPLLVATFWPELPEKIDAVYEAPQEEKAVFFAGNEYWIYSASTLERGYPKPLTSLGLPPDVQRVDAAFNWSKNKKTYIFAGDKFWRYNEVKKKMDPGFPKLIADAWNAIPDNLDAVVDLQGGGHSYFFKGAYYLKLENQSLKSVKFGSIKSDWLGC
How it is done:
(§1) Several compounds and salts were analyzed in an in vitro assay to determine their ability to inhibit the MMP cleavage of peptide substrates. Inhibition constant (Ki) were calculated from the assayed compound-MMP interactions.
(§2) Human recombinant MMP-1, MMP-2, MMP-9, MMP-13, and MMP-14 were used in this assay. All enzymes were prepared in Assignee's laboratories following usual laboratory procedures. Protocols for the preparation and use of these enzymes are available in the scientific literature. See, e.g., Enzyme Nomenclature (Academic Press, San Diego, Calif., 1992) (and the citations therein). See also, Frije et al., J. Biol. Chem., 26(24), 16766-73 (1994).
The MMP-2 proenzyme was purified by gelatin Sepharose chromatography from MMP-2-transfected p2AHT2 cells provided by Dr. Gregory Goldberg of Washington University (St. Louis, Mo.).
(§3) All MMPs were activated using 4-aminophenylmercuric acetate (“APMA”, Sigma Chemical, St. Louis, Mo.) or trypsin. MMP-9 also was activated using human recombinant MMP-3 (purified in Assignee's laboratory following standard cloning and purification techniques).
(§4) The following fluorogenic, methoxycoumarin-containing polypeptide substrate (I) was used in the MMP inhibition assays: MCA-ArgProLeuGlyLeuDpaAlaArgGluArgNH2 (I) “MCA” is 7-methoxycoumarin-4-yl acetyl. Substrate (I) was prepared Assignee's laboratory. In the absence of MMP inhibitory activity, the substrate is cleaved at the Gly-Leu peptide bond. This cleavage separates the highly fluorogenic peptide from the 2,4-dinitrophenyl quencher, thus resulting in increase of fluorescent intensity.
(§5) The stock solutions of the assayed compounds and salts were prepared in […] (DMSO). These stock solutions were diluted in Buffer A (100 mM Tris-HCl, 100 mM NaCl, 10 mM CaCl2, 0.05% polyoxyethylene 23 lauryl ether, pH 7.5) to obtain solutions with different compound concentrations, i.e., assay solutions with different concentrations of the assayed […] compound. The experiment controls contained the same amount of Buffer A/DMSO as the assayed sample, but contained none of the tested compound or salt.
(§6) The assays from which the Ki determinations were made were performed as follows. The assayed compound samples were incubated in separate wells of untreated white polystyrene plates (Nunc Nalgene International, Rochester, N.Y.), and analyzed on a Tecan SpectraFlour Plus plate reader. The excitation wavelength was 330 nm, and the emission wavelength—420 nm. All samples (assayed compounds and controls) were incubated in separate plate wells at room temperature for 1 hr in the presence of 4 μM of MMP substrate (I). In the absence of MMP inhibitory activity, substrate (I) was cleaved at the Gly-Leu bond resulting in an increase of relative fluorescence. Inhibition was observed as a reduced rate of this increase in relative fluorescence. […] This protocol is a modification of method by Knight et al., FEBS Lett., 296(3), 263-266 (1992). Apparent inhibitory constants were determined by non-linear regression of reaction velocity as a function of inhibitor and enzyme concentration using Morrison's equation, as described by Kuzmic, Anal. Biochem. 286, 45-50 (2000). Modifications were made in the non-linear regression method to allow a common control reaction rate and effective enzyme concentration to be shared between all dose-response relationships on a given assay plate. Since the substrate concentration was chosen to be at or below the Km, the apparent Ki's from this analysis were reported as Ki's without correction for the influence of substrate.
(§7) The above protocols were used to determine Ki constants for the compounds in Examples 2-35 above. All Ki values in Table 1 are given in nM units.

For a further assay, the target named is T2, Human recombinant MMP-9 (Homo sapiens, UniProt P14780).
T2 construct: made in house; host or cells: MMP-9-transfected HT1080 cells (spent media)
How it is done: as §1, §2
The MMP-9 proenzyme was purified by gelatin Sepharose chromatography from spent media of MMP-9-transfected HT1080 cells provided by Dr. Howard Welgus of Washington University (St. Louis, Mo.).
as §3, §4, §5, §6, §7

Another assay deals with T3, Human recombinant MMP-14 (Homo sapiens, UniProt P50281).
T3 construct: The catalytic domain enzyme was expressed in E. coli inclusion bodies, solubilized in urea; made in house
How it is done:
as §1, §2
The MMP-14 full length cDNA was provided by Dr. Gregory Goldberg of Washington University (St. Louis, Mo.). The catalytic domain enzyme was expressed in E. coli inclusion bodies, solubilized in urea, purified on a preparative […] reverse phase HPLC column, and then refolded in the presence of zinc acetate and purified for use.
as §3, §4, §5, §6, §7

T2 sequence (P14780 107-707 limits assumed): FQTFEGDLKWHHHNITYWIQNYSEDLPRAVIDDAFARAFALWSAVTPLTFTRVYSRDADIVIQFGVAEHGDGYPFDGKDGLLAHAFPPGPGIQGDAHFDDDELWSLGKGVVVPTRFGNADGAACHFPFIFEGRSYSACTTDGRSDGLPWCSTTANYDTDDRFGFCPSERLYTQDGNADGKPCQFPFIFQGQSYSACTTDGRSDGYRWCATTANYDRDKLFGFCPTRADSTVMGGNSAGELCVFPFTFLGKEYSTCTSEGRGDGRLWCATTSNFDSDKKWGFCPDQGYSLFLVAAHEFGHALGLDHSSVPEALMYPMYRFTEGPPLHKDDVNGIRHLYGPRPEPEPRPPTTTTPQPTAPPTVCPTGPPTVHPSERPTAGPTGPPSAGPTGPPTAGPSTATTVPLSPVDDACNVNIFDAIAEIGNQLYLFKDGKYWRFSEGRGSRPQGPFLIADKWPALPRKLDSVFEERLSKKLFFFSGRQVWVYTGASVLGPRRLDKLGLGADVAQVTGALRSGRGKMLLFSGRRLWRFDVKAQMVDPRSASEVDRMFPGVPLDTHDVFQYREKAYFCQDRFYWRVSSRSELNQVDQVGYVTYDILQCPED

Consider `O=C(NO)C1(S(=O)(=O)c2ccc(-c3ccc(CCC(F)(F)C(F)(F)F)cn3)cc2)CCOCC1` [Example 36], for which the Ki at Human recombinant MMP-2 (Table 1) was 0.0708 nM; on Human recombinant MMP-9 (Table 1), 0.258 nM; at Human recombinant MMP-14 (Table 1), 523 nM.

With `CCc1csc(Nc2ccc(-c3ccc(S(=O)(=O)C4(C(=O)NO)CCOCC4)cc3)cc2)n1` [Example 124], the figures for the Ki on Human recombinant MMP-2 (Table 2), at Human recombinant MMP-9 (Table 2) and at Human recombinant MMP-14 (Table 2) were 32.9 nM, 191 nM and 6230 nM, respectively.

Regarding `O=C(NO)C1(S(=O)(=O)c2ccc(-c3noc(-c4ccc(F)cc4)n3)cc2)CCOCC1` [Example 134], the figures for the Ki on Human recombinant MMP-2 (Table 2), at Human recombinant MMP-9 (Table 2) and at Human recombinant MMP-14 (Table 2) were 1.13 nM, 5.25 nM and 67.1 nM, respectively.

On to `CCCCOc1ccc(-c2ccc(S(=O)(=O)C3(C(=O)NO)CCN(CCOC)CC3)cc2)cc1` [Example 119], for which the Ki on Human recombinant MMP-2 (Table 2) was found to be 0.093 nM; on Human recombinant MMP-9 (Table 2) it was 0.15 nM; on Human recombinant MMP-14 (Table 2), 171 nM.

Consider `O=C(NO)C1(S(=O)(=O)c2ccc(-c3cnc(CCC(F)(F)C(F)(F)F)nc3)cc2)CCOCC1` [Example 142], for which the Ki on Human recombinant MMP-2 (Table 2) is 53.7 nM; on Human recombinant MMP-9 (Table 2), 76.6 nM; at Human recombinant MMP-14 (Table 2) it was > 10000 nM.

As to `O=C(NO)C1(S(=O)(=O)c2ccc(-c3cnc(OCC(F)(F)C(F)(F)F)cn3)cc2)CCN(C2CC2)CC1` [Example 156], the Ki at Human recombinant MMP-2 (Table 2) worked out at 0.39 nM; on Human recombinant MMP-9 (Table 2) it was 0.48 nM; on Human recombinant MMP-14 (Table 2) it was 1140 nM.

With `CC(C)(C)N1CCC(C(=O)NO)(S(=O)(=O)c2ccc(-c3ccc(CCCC(F)(F)F)cc3)cc2)CC1` [Example 48], the Ki was determined as 1.84 nM on Human recombinant MMP-2 (Table 1), 3.54 nM on Human recombinant MMP-9 (Table 1) and 8450 nM at Human recombinant MMP-14 (Table 1).

On to `CCN1CCC(C(=O)NO)(S(=O)(=O)c2ccc(-c3ccc(Oc4ccccc4)cc3)cc2)CC1` [Example 135], for which the Ki amounted to 4.22 nM on Human recombinant MMP-2 (Table 2), 9.95 nM at Human recombinant MMP-9 (Table 2) and 1010 nM at Human recombinant MMP-14 (Table 2).

For `O=C(NO)C1(S(=O)(=O)c2ccc(-c3ccc(CCC(F)(C(F)(F)F)C(F)(F)F)cn3)cc2)CCOCC1` [Example 133], the Ki on Human recombinant MMP-2 (Table 2) came out at 11.9 nM; at Human recombinant MMP-9 (Table 2), 35.2 nM; at Human recombinant MMP-14 (Table 2), 4150 nM.

Turning to `COCCN1CCC(C(=O)NO)(S(=O)(=O)c2ccc(-c3cnc(CCC(C)(F)F)cn3)cc2)CC1` [Example 65], the Ki at Human recombinant MMP-2 (Table 1) was 0.952 nM; at Human recombinant MMP-9 (Table 1), 0.375 nM; on Human recombinant MMP-14 (Table 1) it was 5970 nM.

With `O=C(NO)C1(S(=O)(=O)c2ccc(-c3ncccn3)cc2)CCOCC1` [Example 121], the Ki turned out to be 46.8 nM at Human recombinant MMP-2 (Table 2), 57.9 nM at Human recombinant MMP-9 (Table 2) and 1880 nM on Human recombinant MMP-14 (Table 2).

Turning to `CC(F)(F)CCc1ccc(-c2ccc(S(=O)(=O)C3(C(=O)NO)CCN(C4CC4)CC3)cc2)cc1` [Example 59], the results for the Ki at Human recombinant MMP-2 (Table 1), on Human recombinant MMP-9 (Table 1) and at Human recombinant MMP-14 (Table 1) were 0.11 nM, 0.16 nM and 390 nM, respectively.

Turning to `CCCCOc1ccc(-c2ccc(S(=O)(=O)C3(C(=O)NO)CCN(C4CC4)CC3)cc2)cc1` [Example 120], the values for the Ki at Human recombinant MMP-2 (Table 2), on Human recombinant MMP-9 (Table 2) and at Human recombinant MMP-14 (Table 2) were 0.191 nM, 0.336 nM and 311 nM, respectively.

In the case of `CCN1CCC(C(=O)NO)(S(=O)(=O)c2ccc(-c3noc(-c4ccncc4)n3)cc2)CC1` [Example 148], the Ki at Human recombinant MMP-2 (Table 2) is 7.26 nM; on Human recombinant MMP-9 (Table 2) it was 39.3 nM; on Human recombinant MMP-14 (Table 2), 1020 nM.
